Reference: US9499823B2, “Constructs expressing chimeric receptors and use thereof for the controlled activation of defence response to pathogens in plants” (priority 2009, dated 2016)
Entries after “also recorded” stand apart in the source; their conditions may differ.

Tests used:
[1] = system: agroinfiltrated Arabidopsis thaliana Col-0 leaves; experiment: Receptor internalization: decrease of GFP fluorescence by confocal microscopy in agroinfiltrated Arabidopsis Col-0 leaves; assay type: cell-based; conditions: for decrease of plasma membrane-associated fluorescence signal: explants at 2 dpi; for fluorescence variation upon treatment with elfl8: 10 μM elfl8, 30 min, EFR up to 1 mM elicitor (data not shown); for fluorescence variation upon treatment with OGs: up to 30 min, no EDTA; for decrease of fluorescence from the cell membrane: OGs 100 μg/ml 30 min pre-stimulation, then 5 mM EDTA
Description: PCR templates are shown in bold. Primers listed in Table 1 are shown in capital letters. Stable transgenic lines were generated using the standard A. tumefaciens-mediated gene transfer procedure of inflorescence infiltration (Bent et al., 2006). Independent transformed plant pools were kept separate for the selection of independent transgenic lines based on their phosphinotrycin resistance and leaves GFP fluorescence. Tobacco and Arabidopsis transient transgenic lines were prepared by infiltrating with Agrobacterium tumefaciens carrying the individual constructs, as described by Reca (2008).
The GFP-dependent fluorescence was monitored from 2 to 4 days post infection in cells of the lower epidermis. Pieces of leaf were randomly cut from the infected area and mounted in water or supplemented with elicitors for microscopic observations. Flg22 and elfl8 were used at 10 μM while oligosaccharides were used at 100 μg/mL. Materials were analyzed using a Leica DM IRE epifluorescence microscope equipped with a digital cooled camera (DFC350FX R2; Leica). GFP fluorescence was excited with a 488-nm laser line, and emitted fluorescence was collected at 543-nm. The Leica Confocal Software and Adobe Photoshop 5.0 were used for post-acquisition image processing. All samples were imaged with the 40× or 100× oil objectives. Pictures were taken in Kahlman frame giving an average of 16 scans for the dynamics of internalization and 4 scans for the cellular localizations. […]
The dynamics of fluorescence localization upon treatment with elicitors was then studied. Whereas endocytosis of surface receptors upon ligand binding often occurs in animals (Warren and Landgraf 2006), this mechanism in plants has emerged only recently (Geldner & Robatzek 2008) and, so far, FLS2 is the only receptor involved in plant immunity shown to undergo endocytosis upon the specific stimulation with flg22 (Robatzek et al., 2006). The authors tested the effect of flg22 and elf 18, i.e. the peptides specifically recognized by FLS2 and EFR respectively, and oligogalacturonides with a degree of polymerization between 10 and 16 (OGs), which act as general elicitors of defense responses in several plants. Explants from agroinfiltrated Arabidopsis leaves at 2 dpi were treated with elicitors and then subjected to confocal microscopy analysis. […] Instead, when eJMC-expressing explants were stimulated with flg22, the fluorescent signal decreased by 25% and 40% after 20 min and 30 min, respectively (FIG. 3B).
The first chimeric receptor, indicated as WEG, comprised the WAK1 ectodomain fused to the TM-iJM-kinase portion of EFR and was designed to test the ability of the WAK1 ectodomain to perceive OGs and transmit the signal inside the cell. […] Both WEG and EWAK as well as WAK1 were fused to GFP and used in agroinfiltration experiments (FIG. 5A). […] Western-blot analysis using GFP-specific antibodies on proteins from IWF and microsomal fractions prepared from infiltrated leaves confirmed the plasma membrane localization of both fluorescent chimeras (FIG. 5D). The effect of OGs on the internalization of WEG was followed in agroinfiltrated Arabidopsis Col-0 leaves. […] This might be due to the inability of WEG to uncouple its ectodomain from pectins, since it is known that WAK1 strongly binds to pectin and only denaturing treatments allow its separation from cell wall (He et al., 1996). On the other hand, affinity studies have shown that WAK1 interact with cell wall pectins that are in a Ca^2+-induced conformation (i.e. the structures called “egg boxes”) and that the interaction is disrupted by adding a chelating agent such as EDTA (Decreux et al., 2005; Cabrera et al., 2008). The authors therefore tested whether OG-induced internalization of WEG occurred in the presence of 5 mM EDTA. WEG-expressing agroinfiltrated leaves were syringe-infiltrated with OGs and after 30 min the tissues were mounted in the presence of EDTA for confocal microscopy analysis. […]

[2] = system: Arabidopsis ecotype Wassilewskija (Ws-0) leaves; experiment: H2O2 accumulation (DAB staining) and callose deposition (aniline blue) in stably transformed Arabidopsis Ws-0; assay type: cell-based, Arabidopsis thaliana; conditions: flg22 1 μM, 1 h, stably transformed Ws-0 plants
Description: A) Histochemical analysis of defense responses upon 1 h of treatment with H2O, flg22 (1 μM) or elfl8 (10 μM).
(§1) 3,3′-diaminobenzidine (DAB) staining, callose deposition and gene resistance analysis were assayed as described (Galletti et al., 2008). For measuring active oxygen species released by tobacco agroinfiltrated plants after elicitor treatment, the authors used a modified luminol-dependent assay (Gomez et al., 1999). Slices, corresponding to approximately 30 mg fresh weight, were transferred to assay tubes containing 1 μM flg22 or 10 μM elfl8 in aqueous solution supplied with 40 μM luminol (SIGMA). Chemo-luminescence was measured in a liquid scintillation counter (LS-6500, Beckman) after 5 and 15 min upon addition of elicitors.
(§2) Fluorescent eJMC and FLS2 were also stably expressed in transgenic Arabidopsis ecotype Wassilewskija (Ws-0), which carries EFR but lacks a flg22 perception system (Gomez-Gomez et al., 1999, Bauer et al., 2001). Transformed T1 plants expressing the proteins, named eJMC plants and FLS2 plants, respectively, were selected by confocal microscopy analysis of adult rosette leaves. […] Fluorescence was detected only in adult rosette leaves, likely due to a low expression level of the receptor at the different developmental stages.

[3] = system: RetOx, CYP81F2 and PAD3 transcripts; experiment: Elicitor-induced accumulation of Ret-Ox, CYP81F2 and PAD3 transcripts, semi-quantitative PCR; assay type: cell-based, Arabidopsis thaliana; conditions: flg22 1 μM, 30 minutes, stably transformed Ws-0 plants
Description: B) Elicitor induced accumulation of Ret-Ox, CYP81F2 and PAD3 transcripts analysed by semi-quantitative PCR, using the UBQ5 gene for normalization. Leaves were incubated with water, flg22 (1 μM), elfl8 (10 μM) or a generic peptide (10 μM) for 30 minutes. The experiment was repeated three times with similar results. The same experiment was performed in a second independent transgenic line expressing eJMC with similar results.
as §1, §2

[4] = system: transgenic Arabidopsis Ws-0 seedlings; experiment: Seedling growth inhibition by flg22 in transgenic Ws-0; assay type: in vivo, Arabidopsis thaliana; conditions: data not shown
Source text: as §2

[5] = system: oxidative burst in tobacco leaves; experiment: Oxidative burst, luminol-dependent photon counting in agroinfiltrated tobacco leaf slices; assay type: cell-based, Nicotiana tabacum; conditions: 10 μM elfl8, after 15 min
Description: D) Oxidative burst in tobacco leaves transiently expressing eJMC, EFR and EWAK. Photon counting was realized using tobacco leaves slices in a solution of luminol and peroxidase, during treatment with 10 μM elfl8. eJMC- and EFR-expressing explants were used as a negative and a positive control, respectively. Experiment was repeated at least 6 times on two independent replicated.
(C) Oxidative burst in agroinfiltrated tobacco leaves expressing EWAK. Leaves expressing eJMC and EFR were used as a negative and a positive control, respectively. The burst was measured by photon counting using leaf slices incubated in a solution containing 10 μM elfl8, luminol and peroxidase. The experiment was repeated at least 6 times with two independent replicates.
as §1

[6] = 10 μM flg22, after 20 min of stimulation
[7] = 10 μM flg22, after 30 min of stimulation

Molecule: FLS2 [reference compound]
- decrease of plasma membrane-associated fluorescence signal [1, 6]: 15%
- decrease of plasma membrane-associated fluorescence signal [1, 7]: 30%
- decrease of fluorescence in the presence of EDTA upon stimulation with OGs ([1]; 100 μg/ml OGs, 5 mM EDTA): No decrease of fluorescence
- H2O2 production induced by flg22 [2]: induced
- callose deposition induced by flg22 [2]: induced
- expression of RetOx, CYP81F2 and PAD3 induced by flg22 [3]: induced
- growth inhibition of transgenic seedlings treated with flg22 [4]: did not show growth inhibition

Molecule: eJMC: chimera (Arg806FLS2-Val650EFR): LRR and eJM domains of FLS2 fused upstream of TM, iJM and kinase domains of EFR, GFP-fused
- fluorescence variation upon treatment with elfl8 [1]: did not induce any significant fluorescence variation
- decrease of plasma membrane-associated fluorescence signal [1, 6]: 25%
- decrease of plasma membrane-associated fluorescence signal [1, 7]: 40%
- fluorescence variation upon treatment with OGs ([1]; 100 μg/ml OGs): did not induce any significant fluorescence variation
- H2O2 production induced by flg22 [2]: induced
- callose deposition induced by flg22 [2]: induced
- expression of RetOx, CYP81F2 and PAD3 induced by flg22 [3]: induced
- growth inhibition of transgenic seedlings treated with flg22 [4]: did not show growth inhibition
- oxidative burst upon treatment with elfl8 [5]: not
- oxidative burst upon treatment with elfl8 ([5]; listed as eJM): did not show any significant response

B1: WEG: chimeric receptor: WAK1 ectodomain fused to the TM-iJM-kinase portion of EFR, GFP-fused (protein)
chain: QHQPGENCQNKCGNITIEYPFGISSGCYYPGNESFSITCKEDRPHVLSDIEVANFNHSGQLQVLLNRSSTCYDEQGKKTEEDSSFTLENLSLSANNKLTAVGCNALSLLDTFGMQNYSTACLSLCDSPPEADGECNGRGCCRVDVSAPLDSYTFETTSGRIKHMTSFHDFSPCTYAFLVEDDKFNFSSTEDLLNLRNVMRFPVLLDWSVGNQTCEQVGSTSICGGNSTCLDSTPRNGYICRCNEGFDGNPYLSAGCQDVNECTTSSTIHRHNCSDPKTCRNKVGGFYCKCQSGYRLDTTTMSCKRKEVVSGICIGIASLLLIIIVASLCWFMKRKKKNNASDGNPSDSTTLGMFHEKVSYEELHSATSRFSSTNLIGSGNFGNVFKGLLGPENKLVAVKVLNLLKHGATKSFMAECETFKGIRHRNLVKLITVCSSLDSEGNDFRALVYEFMPKGSLDMWLQLEDLERVNDHSRSLTPAEKLNIAIDVASALEYLHVHCHDPVAHCDIKPSNILLDDDLTAHVSDFGLAQLLYKYDRESFLNQFSSAGVRGTIGYAAPEYGMGGQPSIQGDVYSFGILLLEMFSGKKPTDESFAGDYNLHSYTKSILSGCTSSGGSNAIDEGLRLVLQVGIKCSEEYPRDRMRTDEAVRELISIRSKFFSSKTTITESPRDAPQSSPQEWMLNTDMHTM
modifications: left off: large carriers
- decrease of fluorescence in the presence of EDTA upon stimulation with flg22 ([1]; 10 μM flg22, 5 mM EDTA): No decrease of fluorescence
- internalization in the presence of EDTA upon stimulation with oligomannuronides (OMs) ([1]; 100 μg/mL OMs, EDTA): did not occur
- internalization in the presence of EDTA upon stimulation with 3-6 OGs ([1]; 100 μg/ml 3-6 OGs, EDTA): did not occur
- fluorescence variation upon treatment with OGs ([1]; 100 μg/ml OGs): No decrease of the plasma membrane-associated fluorescence
- decrease of fluorescence from the cell membrane ([1]; after 20 min): 15%
- decrease of fluorescence from the cell membrane ([1]; after 30 min): 25%

B2: EFR: Arabidopsis LRR receptor kinase Elongation Factor Tu Receptor (AT5G20480); GFP-fused control (protein)
chain: RFSNETDMQALLEFKSQVSENNKREVLASWNHSSPFCNWIGVTCGRRRERVISLNLGGFKLTGVISPSIGNLSFLRLLNLADNSFGSTIPQKVGRLFRLQYLNMSYNLLEGRIPSSLSNCSRLSTVDLSSNHLGHGVPSELGSLSKLAILDLSKNNLTGNFPASLGNLTSLQKLDFAYNQMRGEIPDEVARLTQMVFFQIALNSFSGGFPPALYNISSLESLSLADNSFSGNLRADFGYLLPNLRRLLLGTNQFTGAIPKTLANISSLERFDISSNYLSGSIPLSFGKLRNLWWLGIRNNSLGNNSSSGLEFIGAVANCTQLEYLDVGYNRLGGELPASIANLSTTLTSLFLGQNLISGTIPHDIGNLVSLQELSLETNMLSGELPVSFGKLLNLQVVDLYSNAISGEIPSYFGNMTRLQKLHLNSNSFHGRIPQSLGRCRYLLDLWMDTNRLNGTIPQEILQIPSLAYIDLSNNFLTGHFPEEVGKLELLVGLGASYNKLSGKMPQAIGGCLSMEFLFMQGNSFDGAIPDISRLVSLKNVDFSNNNLSGRIPRYLASLPSLRNLNLSMNKFEGRVPTTGVFRNATAVSVFGNTNICGGVREMQLKPCIVQASPRKRKPLSVRKKVVSGICIGIASLLLIIIVASLCWFMKRKKKNNASDGNPSDSTTLGMFHEKVSYEELHSATSRFSSTNLIGSGNFGNVFKGLLGPENKLVAVKVLNLLKHGATKSFMAECETFKGIRHRNLVKLITVCSSLDSEGNDFRALVYEFMPKGSLDMWLQLEDLERVNDHSRSLTPAEKLNIAIDVASALEYLHVHCHDPVAHCDIKPSNILLDDDLTAHVSDFGLAQLLYKYDRESFLNQFSSAGVRGTIGYAAPEYGMGGQPSIQGDVYSFGILLLEMFSGKKPTDESFAGDYNLHSYTKSILSGCTSSGGSNAIDEGLRLVLQVGIKCSEEYPRDRMRTDEAVRELISIRSKFFSSKTTITESPRDAPQSSPQEWMLNTDMHTM
- fluorescence variation upon treatment with elfl8 [1]: no significant decrease of fluorescence
- oxidative burst upon treatment with elfl8 [5]: produced an oxidative burst; also recorded: robust oxidative burst
